In assay [1] the target is T1, tyrosine kinase of 72 kDa (Rattus norvegicus, UniProt Q64725).
T1 construct: endogenous in cells; host or cells: RBL-2H3 cells
Kind of assay: Inhibition of activation (phosphorylation) of tyrosine kinase of 72 kDa due to antigenic stimulation in RBL-2H3 cells. In kind it is cell-based. As for the experimental part:
RBL-2H3 cells were incubated for 10 min together with a test compound in a PBS buffer containing 0.1% of BSA and 1 mM of calcium. Next, the cells were reacted with an antigen specific for the IgE receptor for 10 min. After the completion of the antigenic stimulation, the cells were allowed to stand in ice for 1 hr in a 10 mM phosphate buffer (pH 7.5) containing a lysis buffer (1% Triton X-100, 0.1% SDS, 0.5% sodium deoxycholate, 50 mM NaCl, 50 mM NaF, 1 mM phenylmethyl sulfonyl fluoride, 50 μg/ml eupeptin, 10 unit/ml aprotonin) and 0.1% of NaN3 followed by centrifugation to give a cell lysate. This lysate was diluted with a buffer for electrophoresis, heated (95° C., 5 min) and then electrophoresed on a 10% SDS-polyacrylamide gel. After the electrophoresis, the sample was electrically transcribed onto a 0.2 μm nitrocellulose membrane and treated with an anti-phosphotyrosine antibody for 1 hr. Then the inhibitory activity was evaluated by the coloring analysis through chemiluminescence.

Another assay has as its system RBL-2H3 cells. Kind of assay: Inhibition of serotonin liberation from IgE-sensitized RBL-2H3 cells after antigen stimulation. The assay is classed as cell-based, rat. Particulars: Rattus norvegicus; [3H]-serotonin release, IgE-sensitized RBL-2H3 cells, antigen stimulation; read-out: IC50 (μM) in serotonin liberation from RBL-2H3 cells. In outline: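 Rat RBL-2H3 cells labelled with [3H]-serotonin and sensitized with IgE simultaneously, incubated with compound, then challenged with specific antigen. Inhibition derived from [3H]-serotonin released into medium relative to release without compound.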

The next assay deals with human basophils. Kind of assay: Inhibition of mediator (histamine, peptide leukotriene) liberation from human basophils stimulated with mite antigen. The assay is classed as cell-based. The note with it: enzyme immunoassay. In a few lines: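 Dextran-separated leukocyte fraction containing basophils from heparinized human blood, in D-PBS(+) with 0.1% BSA, pretreated with compound 15 min at 37 °C, then challenged with mite antigen for 10 min. Released histamine and peptide leukotrienes in supernatant quantified by enzyme immunoassay.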

Where [2] appears, read: histamine, read-out: IC50 (μM) in mediator liberation from human basophils: histamine.
Where [3] appears, read: peptide leukotriene, read-out: IC50 (μM) in mediator liberation from human basophils: leukotriene.

Read-outs that look alike come from different tables or passages of the source. Where only a bound is given, the exact number is not on record here.

T1 sequence (Q64725 whole entry): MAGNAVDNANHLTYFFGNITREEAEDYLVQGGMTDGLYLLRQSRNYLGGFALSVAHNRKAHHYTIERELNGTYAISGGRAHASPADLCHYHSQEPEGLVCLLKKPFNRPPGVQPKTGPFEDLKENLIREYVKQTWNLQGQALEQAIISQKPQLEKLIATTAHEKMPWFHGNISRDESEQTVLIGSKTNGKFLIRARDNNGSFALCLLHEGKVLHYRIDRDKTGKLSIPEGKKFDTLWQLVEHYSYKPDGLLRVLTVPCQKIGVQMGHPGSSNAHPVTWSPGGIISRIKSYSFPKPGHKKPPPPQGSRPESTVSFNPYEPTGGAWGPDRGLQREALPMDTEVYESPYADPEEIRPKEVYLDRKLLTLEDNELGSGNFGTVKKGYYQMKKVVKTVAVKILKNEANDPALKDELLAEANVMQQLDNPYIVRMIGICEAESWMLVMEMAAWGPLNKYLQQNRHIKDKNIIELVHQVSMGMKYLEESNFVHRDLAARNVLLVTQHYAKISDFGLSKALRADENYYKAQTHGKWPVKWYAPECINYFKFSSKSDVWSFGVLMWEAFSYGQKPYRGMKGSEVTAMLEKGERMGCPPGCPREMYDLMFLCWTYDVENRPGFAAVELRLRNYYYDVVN

As to `Cc1ccc2c(c1C)N(CCCN)c1ccccc1[S+]2[O-]` (centres unmarked) [Example 8, 1,2-Dimethyl-10-(3-aminopropyl)phenothiazine-5-oxide], the “Inhibitory Strength (%)” value in assay [1] (Conc. of Compd. 3 μM) is reported as 100%. For the same compound, in the assay with RBL-2H3 cells, the IC50 worked out at 0.1 µM.
In the case of `Cc1ccc2c(c1C)N(CCCNCc1ccccc1)c1cc(CCO)ccc1[S+]2[O-]` (centres unmarked) [Example 94], in assay [1] (Conc. of Compd. 3 μM), the “Inhibitory Strength (%)” value worked out at 100%. Further, the IC50 in the assay with RBL-2H3 cells was less than 1 µM; with human basophils (setting [2]), 30 to 100 µM; with human basophils (setting [3]), 10 µM.
As to `Cc1ccc2c(c1C)N(CCCN1CCCCC1)c1ccccc1[S+]2[O-]` (centres unmarked) [Example 104], the “Inhibitory Strength (%)” value in assay [1] (Conc. of Compd. 3 μM) worked out at 100%. Further, the IC50 in the assay with RBL-2H3 cells was less than 3 µM.
For the compound `Cc1ccc2c(c1C)N(CCCN(CCO)Cc1ccccc1)c1ccccc1[S+]2[O-]` (centres unmarked) [Example 105], the “Inhibitory Strength (%)” value in assay [1] (Conc. of Compd. 3 μM) amounted to 100%. The IC50 with RBL-2H3 cells is 2 µM; in the assay on human basophils (setting [2]), 30 µM; in the assay with human basophils (setting [3]) it was 10 to 30 µM.
On to `Cc1ccc2c(c1C)N(CCCN1CCN(S(=O)(=O)c3ccccc3)CC1)c1ccccc1[S+]2[O-]` (centres unmarked) [Example 115], for which the “Inhibitory Strength (%)” value in assay [1] (Conc. of Compd. 10 μM) is listed as 80%. The IC50 is 3 µM in the assay with RBL-2H3 cells, 30 to 100 µM in the assay with human basophils (setting [2]) and 10 µM in the assay with human basophils (setting [3]).
On to `Cc1ccc2c(c1C)N(CCCNc1ccccc1)c1ccccc1[S+]2[O-]` (centres unmarked) [Example 123], for which the “Inhibitory Strength (%)” value in assay [1] (Conc. of Compd. 30 μM) worked out at 100%. The values for the IC50 with RBL-2H3 cells, with human basophils (setting [2]) and with human basophils (setting [3]) were 3 µM, 30 µM and 10 to 30 µM, respectively.
In the case of `Cc1ccc2c(c1C)N(CCCN1CCC(C(=O)O)CC1)c1ccccc1[S+]2[O-]` (centres unmarked) [Example 129], the “Inhibitory Strength (%)” value in assay [1] (Conc. of Compd. 3 μM) is listed as 100%. For the same compound, the IC50 in the assay on RBL-2H3 cells was less than 1 µM.
For the compound `Cc1ccc2c(c1C)N(CCCN(CC(=O)O)CC(=O)O)c1ccccc1[S+]2[O-]` (centres unmarked) [Example 132], the “Inhibitory Strength (%)” value in assay [1] (Conc. of Compd. 3 μM) was determined as 100%. Moreover, in the assay on RBL-2H3 cells, the IC50 turned out to be 2 µM.
Turning to `Cc1ccc2c(c1C)N(C/C=C/CNCc1ccccc1)c1ccccc1[S+]2[O-]` (centres unmarked) [Example 138, 1,2-Dimethyl-10-[4-benzylamino(2-butenyl)]phenothiazine-5-oxide], in assay [1] (Conc. of Compd. 10 μM), the “Inhibitory Strength (%)” value turned out to be 100%. The figures for the IC50 in the assay with RBL-2H3 cells, in the assay with human basophils (setting [2]) and with human basophils (setting [3]) were 3 µM, 10 to 30 µM and 10 µM, respectively.
For the compound `Cc1ccc2c(c1C)N(CCCCNCc1ccccc1)c1ccccc1[S+]2[O-]` (centres unmarked) [Example 139], the “Inhibitory Strength (%)” value in assay [1] (Conc. of Compd. 10 μM) was found to be 100%. In addition, the IC50 with RBL-2H3 cells is 2 µM; in the assay on human basophils (setting [2]) it was 30 to 100 µM; in the assay with human basophils (setting [3]), 10 to 30 µM.
Regarding `Cc1ccc2c(c1C)N(CCNCc1ccccc1)c1ccccc1[S+]2[O-]` (centres unmarked) [Example 143, 1,2-Dimethyl-10-(2-benzylaminoethyl)phenothiazine-5-oxide], the “Inhibitory Strength (%)” value in assay [1] (Conc. of Compd. 10 μM) amounted to 100%. Also, the IC50 in the assay with RBL-2H3 cells is 3 µM; with human basophils (setting [2]), less than 10 µM; in the assay on human basophils (setting [3]), less than 10 µM.
Regarding `COc1cc(C)c(O)c(CN(C)CCCN2c3ccccc3[S+]([O-])c3ccc(C)c(C)c32)c1O` (centres unmarked) [Example 175], the IC50 was 0.8 µM in the assay on RBL-2H3 cells, 30 to 100 µM in the assay on human basophils (setting [2]) and 10 µM in the assay on human basophils (setting [3]).
In the case of `COc1ccc(CN(C)CCCN2c3ccccc3[S+]([O-])c3ccc(C)c(C)c32)o1` (centres unmarked) [Example 176], the IC50 in the assay on RBL-2H3 cells is 2 µM; with human basophils (setting [2]), 30 to 100 µM; in the assay on human basophils (setting [3]) it was 10 to 30 µM.
Turning to `Cc1ccc2c(c1C)N(CCCN(C)Cc1ccc(CO)o1)c1ccccc1[S+]2[O-]` (centres unmarked) [Example 177], the results for the IC50 with RBL-2H3 cells, in the assay on human basophils (setting [2]) and in the assay with human basophils (setting [3]) were 1 µM, 10 µM and less than 3 µM, respectively.
As to `Cc1ccc2c(c1C)N(CCN(C)Cc1ccccc1O)c1ccccc1[S+]2[O-]` (centres unmarked) [Example 179], the “Inhibitory Strength (%)” value in assay [1] (Conc. of Compd. 10 μM) is 100%. Moreover, the IC50 with RBL-2H3 cells was 2 µM; with human basophils (setting [2]) it was 10 to 30 µM; with human basophils (setting [3]), 3 to 10 µM.
On to `COc1cccc(CN(C)CCN2c3ccccc3[S+]([O-])c3ccc(C)c(C)c32)c1O` (centres unmarked) [Example 180], for which the IC50 in the assay on RBL-2H3 cells is 2 µM; in the assay on human basophils (setting [2]) it was 30 to 100 µM; in the assay on human basophils (setting [3]) it was 3 to 10 µM.
`Cc1ccc2c(c1C)N(CCN(C)Cc1cccc(C)c1O)c1ccccc1[S+]2[O-]` (centres unmarked) [Example 181]: the results for the IC50 in the assay on RBL-2H3 cells, in the assay with human basophils (setting [2]) and in the assay with human basophils (setting [3]) were 2 µM, 10 to 30 µM and less than 10 µM, respectively.
Take `COc1ccccc1CN(C)CCN1c2ccccc2[S+]([O-])c2ccc(C)c(C)c21` (centres unmarked) [Example 182]: the IC50 in the assay with RBL-2H3 cells is 2 µM; with human basophils (setting [2]) it was 30 to 100 µM; with human basophils (setting [3]) it was 10 to 30 µM.
For `Cc1ccc2c(c1C)N(CCN(C)Cc1ccccc1OCCO)c1ccccc1[S+]2[O-]` (centres unmarked) [Example 183] the same measures were 3 µM, 30 to 100 µM and 10 to 30 µM.
Regarding `Cc1ccc2c(c1C)N(CCN(C)Cc1cccc(CO)c1O)c1ccccc1[S+]2[O-]` (centres unmarked) [Example 185], the IC50 was 0.5 µM with RBL-2H3 cells, 10 to 30 µM in the assay on human basophils (setting [2]) and less than 3 µM with human basophils (setting [3]).
In the case of `Cc1ccc2c(c1)N(CCCN(C)Cc1ccccc1O)c1c(ccc(C)c1C)[S+]2[O-]` (centres unmarked) [Example 188], the values for the IC50 with RBL-2H3 cells, in the assay with human basophils (setting [2]) and with human basophils (setting [3]) were 1 µM, 10 µM and 3 to 10 µM, respectively.
For `COc1ccc2c(c1)N(CCCN(C)Cc1ccccc1O)c1c(ccc(C)c1C)[S+]2[O-]` (centres unmarked) [Example 189], the IC50 is 0.8 µM in the assay on RBL-2H3 cells, 3 to 10 µM in the assay on human basophils (setting [2]) and 3 to 10 µM with human basophils (setting [3]).
In the case of `Cc1ccc2c(c1C)N(CCCN(C)Cc1ccccc1)c1cc(-c3nnn(C)n3)ccc1[S+]2[O-]` (centres unmarked) [Example 190], the results for the IC50 in the assay with RBL-2H3 cells, with human basophils (setting [2]) and in the assay with human basophils (setting [3]) were 0.5 µM, 3 µM and 10 µM, respectively.
In the case of `Cc1ccc2c(c1C)N(CCN(CCO)Cc1ccccc1)c1ccccc1[S+]2[O-]` (centres unmarked) [Example 193], the IC50 in the assay on RBL-2H3 cells came out at 2 µM; with human basophils (setting [2]), 30 µM; with human basophils (setting [3]), 10 µM.
For `Cc1ccc2c(c1C)N(CCNCc1ccc(S(N)(=O)=O)cc1)c1ccccc1[S+]2[O-]` (centres unmarked) [Example 195], the IC50 was 0.5 µM in the assay on RBL-2H3 cells, 30 to 100 µM with human basophils (setting [2]) and 10 to 30 µM with human basophils (setting [3]).
With `Cc1ccc2c(c1C)N(CCCN)c1ccccc1S2(=O)=O` [Example 196, 1,2-Dimethyl-10-(3-aminopropyl)phenothiazine-5,5-dioxide], the “Inhibitory Strength (%)” value in assay [1] (Conc. of Compd. 30 μM) was 30%. Besides, the IC50 in the assay on RBL-2H3 cells was 5 µM.
For `Cc1ccc2c(c1C)N(CCCNCc1ccccc1)c1ccccc1S2(=O)=O` [Example 200] the same measures were 70% and 0.4 µM.
Turning to `Cc1ccc2c(c1C)N(CCCNCc1ccccc1)c1cc(CCO)ccc1S2(=O)=O` [Example 201], the “Inhibitory Strength (%)” value in assay [1] (Conc. of Compd. 30 μM) is recorded as 30-70%. In addition, the IC50 with RBL-2H3 cells is 10 µM; in the assay on human basophils (setting [2]), 10 µM; with human basophils (setting [3]), less than 10 µM.
On to `Cc1ccc2c(c1C)N(CCCN(CCO)Cc1ccccc1)c1ccccc1S2(=O)=O` [Example 202], for which the “Inhibitory Strength (%)” value in assay [1] (Conc. of Compd. 30 μM) turned out to be 80%. The IC50 with RBL-2H3 cells is 6 µM; with human basophils (setting [2]) it was 10 to 30 µM; with human basophils (setting [3]) it was less than 10 µM.
For the compound `Cc1ccc2c(=NOC(C)C(=O)O)c3ccccc3n(CCCNCc3ccccc3)c2c1C` (centres unmarked) [Example 236], the “Inhibitory Strength (%)” value in assay [1] (Conc. of Compd. 3 μM) is 70%. For the same compound, the IC50 with RBL-2H3 cells stood at 1 µM.
As for `Cc1ccc2c(c1C)N(CCCNCc1ccccc1)c1cccc(CC(=O)O)c1[S+]2[O-]` (centres unmarked) [Example 262], the “Inhibitory Strength (%)” value in assay [1] (Conc. of Compd. 30 μM) is 100%. For the same compound, the IC50 with RBL-2H3 cells worked out at 8 µM.

The values are drawn from US6703388B2, “Nitrogen-containing tricyclic compounds and drugs containing the same” (Eisai Co., Ltd., priority 1996, dated 2004).
